# Data: the NIST ThermoML archive (doi:10.1021/je700632z)
# Numbers after ± are expanded uncertainties.
# Conditions: 101.33 kPa, Liquid, Capillary tube (Ostwald / Ubbelohde) method
SMILES,kinematic viscosity (298.15 K),kinematic viscosity (303.15 K),kinematic viscosity (308.15 K),kinematic viscosity (313.15 K),kinematic viscosity (318.15 K)
FC(F)(F)C(F)(F)C(F)(F)C(F)(F)C(F)(F)C(F)(F)C(F)(F)C(F)(F)Br [1-bromoperfluorooctane],1.065e-06 ± 1e-08 m2/s,9.96e-07 ± 1e-08 m2/s,9.05e-07 ± 1.1e-08 m2/s,8.37e-07 ± 6e-09 m2/s,7.51e-07 ± 1.1e-08 m2/s
FC(F)(F)C(F)(F)C(F)(F)C(F)(F)C(F)(F)C(F)(F)C(F)(F)C(F)(F)C(F)(F)F [eicosafluorononane],1e-06 ± 1.2e-08 m2/s,9.11e-07 ± 9e-09 m2/s,8.33e-07 ± 8e-09 m2/s,7.73e-07 ± 6e-09 m2/s,7.14e-07 ± 7e-09 m2/s
FC(F)(F)C(F)(F)C(F)(F)C(F)(F)C(F)(F)C(F)(F)C(F)(F)F [hexadecafluoroheptane],5.43e-07 ± 4e-09 m2/s,5.12e-07 ± 9e-09 m2/s,4.82e-07 ± 1.1e-08 m2/s,4.48e-07 ± 7e-09 m2/s,4.34e-07 ± 7e-09 m2/s
Fc1c(F)c(F)c(F)c(F)c1F [hexafluorobenzene],5.81e-07 ± 9e-09 m2/s,5.35e-07 ± 1.1e-08 m2/s,4.91e-07 ± 4e-09 m2/s,4.5e-07 ± 7e-09 m2/s,4.23e-07 ± 9e-09 m2/s
FC(F)(F)C(F)(F)C(F)(F)C(F)(F)C(F)(F)C(F)(F)C(F)(F)C(F)(F)F [octadecafluorooctane],7.11e-07 ± 7.4e-09 m2/s,6.56e-07 ± 6.9e-09 m2/s,6.08e-07 ± 6.4e-09 m2/s,5.65e-07 ± 6e-09 m2/s,5.27e-07 ± 5.6e-09 m2/s
Fc1c(F)c(F)c(C(F)(F)F)c(F)c1F [octafluorotoluene],5.88e-07 ± 4e-09 m2/s,5.51e-07 ± 5e-09 m2/s,5.16e-07 ± 4e-09 m2/s,4.84e-07 ± 4e-09 m2/s,4.57e-07 ± 4e-09 m2/s
FC(F)(F)C1(F)C(F)(F)C(F)(F)C(F)(F)C(F)(F)C1(F)F [perfluoro(methylcyclohexane)],9.31e-07 ± 8e-09 m2/s,8.43e-07 ± 9e-09 m2/s,7.72e-07 ± 8e-09 m2/s,7.22e-07 ± 9e-09 m2/s,6.84e-07 ± 9e-09 m2/s
FC1(F)C(F)(F)C(F)(F)C2(F)C(F)(F)C(F)(F)C(F)(F)C(F)(F)C2(F)C1(F)F (stereo not given) [perfluorodecalin],2.803e-06 ± 1.6e-08 m2/s,2.448e-06 ± 1.4e-08 m2/s,2.159e-06 ± 1.4e-08 m2/s,1.917e-06 ± 1.1e-08 m2/s,1.709e-06 ± 1e-08 m2/s
FC(F)(F)C(F)(F)C(F)(F)C(F)(F)C(F)(F)C(F)(F)F [perfluorohexane],4.17e-07 ± 5e-09 m2/s,3.97e-07 ± 9e-09 m2/s,3.72e-07 ± 4e-09 m2/s,3.57e-07 ± 5e-09 m2/s,3.43e-07 ± 4e-09 m2/s
